Experimental findings from ChEMBL document CHEMBL5303711, “ECBD screening data for assay EOS300108” (2023) are described below.

This data set is described as follows: Cytotoxicity activity against human HepG2 cells assessed by CellTiter-Glo luminescent cell viability assay. The class given is toxicity, cell-based. Set-up: assay stage confirmatory assay, source tissue liver. The note with it: HepG2 cells, read-out: IC50 relative. For orientation: Cellular ATP, detected with luciferase, serves as a proxy for viable cell number.

Structures can show the parent of a compound that is named as a salt. The source made the active and inactive calls. How the calls were made is not given here. Residues, ends and D or L forms follow the SMILES beside them. *: point of attachment. Cbz = O=C(OCc1ccccc1)* Bounds are passed on as bounds.

For `O=c1cc(-c2ccc(O)c(O)c2)oc2cc(O)cc(O)c12` [LUTEOLIN], the CC50 was 9 µM (active).
Turning to `O=C1NC(=O)C(c2cnc3ccccn23)=C1c1cn2c3c(cc(F)cc13)CN(C(=O)N1CCCCC1)CC2` [LY-2090314], the CC50 was 9.5 µM (active).
With `C[C@@H](Oc1ccc2[nH]nc(/C=C/c3cnn(CCO)c3)c2c1)c1c(Cl)cncc1Cl` [LY-2874455], the CC50 was 0.7 µM (active).
Turning to `CNc1ncc2cc(-c3cc(NC(=O)NCCC(C)(C)C)c(F)cc3C)c(C)nc2n1` [LY-3009120], the CC50 was 0.4 µM (active).
For `CNCCCC12CCC(c3ccccc31)c1ccccc12` [MAPROTILINE HYDROCHLORIDE], the CC50 was 4.7 µM (active).
As for `Cc1ccc(NC(=O)c2ccc(CN3CCN(C)CC3)cc2)cc1Nc1nc(-c2cccnc2)cs1` [MASITINIB], the CC50 is 3.5 µM (active).
With `Cc1ccc(C(=O)Nc2ccc(Oc3cc4cnn(C)c4cc3-c3cn[nH]c3)c(F)c2)c(=O)n1-c1ccc(F)cc1` [MERESTINIB], the CC50 was 2.9 µM (active).
Then `CN1C[C@H](CNC(=O)OCc2ccccc2)C[C@@H]2c3cccc4c3c(cn4C)C[C@H]21` [METERGOLINE], with 6.3 µM (active).
For the molecule `CN(Cc1cnc2nc(N)nc(N)c2n1)c1ccc(C(=O)N[C@@H](CCC(=O)O)C(=O)O)cc1` [METHOTREXATE], the CC50 is < 0.1 µM (active).
Turning to `CN(C)c1ccc2nc3ccc(=[N+](C)C)cc-3sc2c1` [METHYLENE BLUE ANHYDROUS], the CC50 was 3 µM (active).
Take `CN(C)c1ccc(C(O)(c2ccc(N(C)C)cc2)c2ccc(N(C)C)cc2)cc1` [METHYLROSANILINE]: the CC50 was 2 µM (active).
As to `CSc1ccc2c(c1)C(N1CCN(C)CC1)Cc1ccccc1S2` (centres undefined) [METITEPINE], the CC50 is 4.9 µM (active).
The value for `CC[C@H](C)C(=O)O[C@H]1CCC=C2C=C[C@H](C)[C@H](CC[C@@H]3C[C@@H](O)CC(=O)O3)[C@H]21` [MEVASTATIN] was 33.3 µM (inactive); that for `CC(C)C[C@@H](C=O)NC(=O)[C@H](CC(C)C)NC(=O)[C@H](CC(C)C)NC(=O)OCc1ccccc1` [MG-132] (Cbz-Leu-Leu-Leu-aldehyde) was 0.5 µM (active).
For `COCC(=O)O[C@]1(CCN(C)CCCc2nc3ccccc3[nH]2)CCc2cc(F)ccc2[C@@H]1C(C)C` [MIBEFRADIL DIHYDROCHLORIDE], the CC50 is 3.1 µM (active).
Regarding `Clc1ccc(COC(Cn2ccnc2)c2ccc(Cl)cc2Cl)c(Cl)c1` (centres undefined) [MICONAZOLE NITRATE], the CC50 was 12 µM (active).
As to `CNC(=O)c1nn(C)c2c1C(C)(C)Cc1cnc(Nc3ccc(N4CCN(C)CC4)cc3)nc1-2` [MILCICLIB], the CC50 is 0.9 µM (active).
Regarding `Nc1ncccc1-c1nc2ccc(-c3ccccc3)nc2n1-c1ccc(C2(N)CCC2)cc1` [MIRANSERTIB], the CC50 is 4.2 µM (active).
The value for `O=C(NOC[C@H](O)CO)c1ccc(F)c(F)c1Nc1ccc(I)cc1F` [MIRDAMETINIB] was < 0.1 µM (active); that for `O=C1c2c(O)ccc(O)c2C(=O)c2c(NCCNCCO)ccc(NCCNCCO)c21` [MITOXANTRONE] was 0.8 µM (active); that for `CCS(=O)(=O)Nc1ccc(Oc2ccc(F)cc2F)c(-c2cn(C)c(=O)c3[nH]ccc23)c1` [MIVEBRESIB] was 0.3 µM (active).
As for `C[C@@H]1CN(c2cc(-c3n[nH]c4ccc(OC5(C)CC5)cc34)ncn2)C[C@H](C)O1` [MLi-2], the CC50 was 16.5 µM (active).
The value for `CCNC(=O)C[C@@H]1N=C(c2ccc(Cl)cc2)c2cc(OC)ccc2-n2c(C)nnc21` [MOLIBRESIB] was 2.6 µM (active).
Then `N#CCNC(=O)c1ccc(-c2ccnc(Nc3ccc(N4CCOCC4)cc3)n2)cc1` [MOMELOTINIB], with 5.2 µM (active).
On to `CCCN(CCC)C(=O)C1=Cc2ccc(-c3ccc(C(=O)N4CCCC4)cc3)cc2N=C(N)C1` [MOTOLIMOD], for which the CC50 was 11.3 µM (active).
Take `FC(F)(F)c1ccc(/C=C/c2nc(COc3ccc(CCCCn4ccnn4)cc3)co2)cc1` [MUBRITINIB]: the CC50 was 0.3 µM (active).
Regarding `Cc1cc(C(=O)Nc2nc3cccc(Cl)c3n2[C@@H]2CCCCN(C(=O)/C=C/CN(C)C)C2)ccn1` [NAZARTINIB], the CC50 is 6.4 µM (active).
Regarding `COc1ccc([C@@H](O)c2cc(-c3ncnc4cc(N5CCOCC5)ccc34)c(F)cc2Cl)nn1` [NEDISERTIB], the CC50 is 3.4 µM (active).
For `CCc1nn(CCCN2CCN(c3cccc(Cl)c3)CC2)c(=O)n1CCOc1ccccc1` [NEFAZODONE HYDROCHLORIDE], the CC50 is 14.4 µM (active).
For the molecule `CC(C)N1CCN(Cc2cnc(-c3cc(-c4cccc5[nH]ccc45)cc4[nH]ncc34)o2)CC1` [NEMIRALISIB], the CC50 was 4.4 µM (active).
The value for `CCOc1cc2ncc(C#N)c(Nc3ccc(OCc4ccccn4)c(Cl)c3)c2cc1NC(=O)/C=C/CN(C)C` [NERATINIB] was 9.9 µM (inactive); that for `CNc1cccc(NC(=O)N[C@@H]2N=C(c3ccccn3)c3ccccc3N(CC(=O)C(C)(C)C)C2=O)c1` [NETAZEPIDE] was 18.4 µM (inactive); that for `CCCCN(Cc1ccc(C(=O)NO)cc1)C(=O)Nc1ccccc1` [NEXTURASTAT A] was 6.9 µM (active).
Turning to `O=C(Nc1ccc([N+](=O)[O-])cc1Cl)c1cc(Cl)ccc1O` [NICLOSAMIDE], the CC50 was 0.7 µM (active).
Take `CC[N+](CC)=c1ccc2nc3c(cc(N)c4ccccc43)oc-2c1` [NILE BLUE HYDROCHLORIDE]: the CC50 is 2 µM (active).
As for `COC(=O)C1=C(C)NC(C)=C(C(=O)OCC(C)C)C1c1ccccc1[N+](=O)[O-]` (centres undefined) [NISOLDIPINE], the CC50 was 11.1 µM (active).
Take `O=[N+]([O-])c1ccc(O)c2ncccc12` [NITROXOLINE]: the CC50 is 12.4 µM (active).
On to `CC(Cc1ccc(O)c(O)c1)C(C)Cc1ccc(O)c(O)c1` (centres undefined) [NORDIHYDROGUAIARETIC ACID], for which the CC50 is 10.3 µM (inactive).
On to `O=C(O)c1ccc2cc(-c3ccc(O)c(C45CC6CC(CC(C6)C4)C5)c3)ccc2c1` [O-DEMETHYLATED ADAPALENE], for which the CC50 is 8.3 µM (active).
`CC1(C)CC[C@]2(C(=O)O)CC[C@]3(C)C(=CC[C@@H]4[C@@]5(C)CCC(=O)C(C)(C)[C@@H]5CC[C@]43C)[C@@H]2C1` [OLEANONIC ACID]: the CC50 is 8.4 µM (inactive).
`COC(=O)C[C@](O)(CCCC(C)(C)O)C(=O)O[C@@H]1C(OC)=C[C@]23CCCN2CCc2cc4c(cc2[C@H]13)OCO4` [OMACETAXINE MEPESUCCINATE]: the CC50 is 0.2 µM (active).
The value for `COc1ncc(-c2ccc3nccc(-c4ccnnc4)c3c2)cc1NS(=O)(=O)c1ccc(F)cc1F` [OMIPALISIB] was 0.1 µM (active); that for `CO[C@H]1CC[C@H](N2C(=O)CNc3ncc(-c4ccc(C(C)(C)O)nc4)nc32)CC1` [ONATASERTIB] was 6 µM (active); that for `CN1CCN(c2ccc(OC(F)(F)F)c(Nc3ncc4c(n3)-c3c(c(C(N)=O)nn3CCO)CC4)c2)CC1` [ONVANSERTIB] was 11.9 µM (active).
As to `COC[C@H](NC(=O)c1cnc(C)s1)C(=O)N[C@@H](COC)C(=O)N[C@@H](Cc1ccccc1)C(=O)[C@@]1(C)CO1` [OPROZOMIB], the CC50 is 0.1 µM (active).
`CC(C)Oc1ccc(-c2nc(-c3cccc4c3CC[C@@H]4NCCO)no2)cc1C#N` [OZANIMOD]: the CC50 was 3.4 µM (active).
Then `C=CCc1cccc(/C=N/NC(=O)CN2CCN(Cc3ccccc3)CC2)c1O` [PAC-1], with 6.3 µM (active).
Then `COc1ccc(Cc2nccc3cc(OC)c(OC)cc23)cc1OC` [PAPAVERINE], with 12.8 µM (active); and `Fc1ccc([C@@H]2CCNC[C@H]2COc2ccc3c(c2)OCO3)cc1` [PAROXETINE HYDROCHLORIDE], with 4.1 µM (active); and `O=[N+]([O-])c1ccc(-c2nc(-c3ccncc3)c(-c3ccc(F)cc3)[nH]2)cc1` [PD-169316], with 50 µM (inactive).
For the molecule `CCOc1cc2ncc(C#N)c(Nc3ccc(F)c(Cl)c3)c2cc1NC(=O)/C=C/CN(C)C` [PELITINIB], the CC50 was 1.8 µM (active).
As to `N=C(N)c1ccc(OCCCCCOc2ccc(C(=N)N)cc2)cc1` [PENTAMIDINE ISETHIONATE], the CC50 was 3.4 µM (active).
`OCCN1CCN(CCCN2c3ccccc3Sc3ccc(Cl)cc32)CC1` [PERPHENAZINE]: the CC50 is 3.4 µM (active).
For `FC(F)(F)c1ccc(CNc2ccc(Cc3c[nH]c4ncc(Cl)cc34)cn2)cn1` [PEXIDARTINIB], the CC50 was 5.2 µM (active).
Take `Cc1ccc(-n2nc(C(C)(C)C)cc2NC(=O)NCc2cc(F)ccc2Oc2ccc3c(cnn3CCO)c2)cc1` [PEXMETINIB]: the CC50 is 2.4 µM (active).
For the molecule `Cc1nc(Nc2n[nH]c3c2CN(C(=O)N[C@H](CN(C)C)c2ccccc2)C3(C)C)c2sccc2n1` [PF-03758309], the CC50 was 0.4 µM (active).
Then `COc1ccc(-c2cc3c(C)nc(N)nc3n([C@H]3CC[C@H](OCCO)CC3)c2=O)cn1` [PF-04691502], with 0.6 µM (active).
The value for `CC(C)CC(=O)Nc1[nH]nc2c1CN(C(=O)C1CCN(C)CC1)C2(C)C` [PHA-793887] was 1 µM (active); that for `CS(=O)(=O)N1CCN(Cc2cc3nc(-c4cccc5[nH]ncc45)nc(N4CCOCC4)c3s2)CC1` [PICTILISIB] was 0.9 µM (active).
In the case of `O=C(NC[C@H](O)CO)c1ccncc1Nc1ccc(I)cc1F` [PIMASERTIB], the CC50 is < 0.1 µM (active).
Turning to `O=c1[nH]c2ccccc2n1C1CCN(CCCC(c2ccc(F)cc2)c2ccc(F)cc2)CC1` [PIMOZIDE], the CC50 is 4.6 µM (active).
The value for `O=C(c1c(F)ccc(NS(=O)(=O)N2CC[C@@H](F)C2)c1F)c1c[nH]c2ncc(-c3cnc(C4CC4)nc3)cc12` [PLIXORAFENIB] was 5.4 µM (active); that for `Cc1ccc(C(=O)Nc2ccc(CN3CCN(C)CC3)c(C(F)(F)F)c2)cc1C#Cc1cnc2cccnn12` [PONATINIB] was 0.3 µM (active); that for `CC[C@@H]([C@H](C)O)n1ncn(-c2ccc(N3CCN(c4ccc(OC[C@@H]5CO[C@@](Cn6cncn6)(c6ccc(F)cc6F)C5)cc4)CC3)cc2)c1=O` [POSACONAZOLE] was 19.6 µM (inactive).
